Literature values in patent US8168440B2, “Polymeric sulfated surfactants for capillary electrophoresis (CE) and CE-mass spectrometry (CE-MS)” (Georgia State University, priority 2006, dated 2012).

Tests used:
[1] = in vivo

| SMILES | pKa | Part of the dosage taken excreted in the urine [1] | Serum half-life [1] [h] |
| --- | --- | --- | --- |
| CC(Oc1ccccc1Cl)C(=O)O (racemic) [(±)-2-PPA, 2-(2-chlorophenoxy)propionic acid] | 3.11±0.1 | – | – |
| CN[C@@H](C)[C@@H](O)c1ccccc1 (racemic) [(±)-pseudoephedrine, pseudoephedrine] | – | about one-half | 5 to 8 |
